Laboratory results as given in patent publication US20250025443A1, “COMPOUNDS AND METHODS FOR TREATING CORONA VIRUSES” (CLEAR CREEK BIO, INC., priority 2021, published 2025).
pIC50: −log10 of the molar value.

Molecular target: SARS-CoV-2 Papain-Like Protease (PLpro) (Severe acute respiratory syndrome coronavirus 2 (2019-nCoV) (SARS-CoV-2), UniProt P0DTD1)
Assay: biochemical
Details: PLpro 6.25 nM, substrate 25 μM, 60 min at 25° C.; for more potent compounds PLpro 1 nM, 120 min; read-out: PLpro IC50

Compound	pIC50
COc1ccc(Cl)c(C(=O)N[C@H](C)c2cccc3ccccc23)c1 [Compound 132, (R)-2-Chloro-5-methoxy-N-(1-(naphthalen-1-yl)ethyl)benzamide]	< 5.30

Same assay, conditions: PLpro enzymatic fluorescence assay; class symbols; read-out: PLpro IC50

Compound	pIC50
CC(C)c1ccccc1C(C)N1CCC(C(=O)NCc2cccc(F)c2)CC1 (stereo not drawn) [Compound 552, N-(3-Fluorobenzyl)-1-(1-(2-isopropylphenyl)ethyl)piperidine-4-carboxamide]	< 5.30
Cc1ccc(OC[C@@H]2CCN2C)cc1C(=O)NC1(c2cc(-c3cn[nH]c3)cc3ncccc23)CC1 [Compound 652, (S)-N-(1-(7-(1H-Pyrazol-4-yl)quinolin-5-yl)cyclopropyl)-2-methyl-5-((1-methylazetidin-2-yl)methoxy)benzamide]	> 7.00
Cc1ccc(OC[C@@H]2CCN2C)cc1C(=O)NC1(c2cc(C3CCCC3)cc3ncccc23)CC1 [Compound 648, (S)-N-(1-(7-Cyclopentylquinolin-5-yl)cyclopropyl)-2-methyl-5-((1-methylazetidin-2-yl)methoxy)benzamide]	> 7.00
Cc1ccc(OC[C@@H]2CCN2)cc1C(=O)NC1(c2cc(-c3ccnn3C)cc3ncccc23)CC1 [Compound 649, (S)-5-(Azetidin-2-ylmethoxy)-2-methyl-N-(1-(7-(1-methyl-1H-pyrazol-5-yl)quinolin-5-yl)cyclopropyl)benzamide]	> 7.00
Cc1ccc(OC[C@@H]2CCN2)cc1C(=O)NC1(c2cc(N3CCC3)cc3ncccc23)CC1 [Compound 722, (S)—N-(1-(7-(Azetidin-1-yl)quinolin-5-yl)cyclopropyl)-5-(azetidin-2-ylmethoxy)-2-methylbenzamide]	> 7.00
Cc1ccc(OCC2CCN2C)cc1C(=O)NC1(c2cc(O)cc3ncccc23)CC1 (stereo not drawn) [Compound 488, N-(1-(7-Hydroxyquinolin-5-yl)cyclopropyl)-2-methyl-5-((1-methylazetidin-2-yl)methoxy)benzamide]	> 7.00
C=C(C)c1cc(C2(NC(=O)c3cc(OC[C@@H]4CCN4)ccc3C)CC2)c2cccnc2c1 [Compound 613, (S)-5-(Azetidin-2-ylmethoxy)-2-methyl-N-(1-(7-(prop-1-en-2-yl)quinolin-5-yl)cyclopropyl)benzamide]	> 7.00
Cc1ncc(-c2cc(C3(NC(=O)c4cc(OC[C@@H]5CCN5C)ccc4C)CC3)c3cccnc3c2Cl)s1 [Compound 814, (S)-N-(1-(8-Chloro-7-(2-methylthiazol-5-yl)quinolin-5-yl)cyclopropyl)-2-methyl-5-((1-methylazetidin-2-yl)methoxy)benzamide]	> 7.00
Cc1ccc(OC[C@@H]2CCN2C)cc1C(=O)NC1(c2cc(-c3ccc(CN4CCOCC4)s3)cc3ncccc23)CC1 [Compound 793, (S)-2-Methyl-5-((1-methylazetidin-2-yl)methoxy)-N-(1-(7-(5-(morpholinomethyl)thiophen-2-yl)quinolin-5-yl)cyclopropyl)benzamide]	> 7.00
Cc1ccc(OC[C@@H]2CCN2C)cc1C(=O)NC1(c2cc(-c3ccc(CNC4CCCC4)s3)cc3ncccc23)CC1 [Compound 752, (S)—N-(1-(7-(5-((Cyclopentylamino)methyl)thiophen-2-yl)quinolin-5-yl)cyclopropyl)-2-methyl-5-((1-methylazetidin-2-yl)methoxy)benzamide]	> 7.00
Cc1ccc(OC[C@@H]2CCN2)cc1C(=O)NC1(c2cc(-c3ncccn3)cc3ncccc23)CC1 [Compound 682, (S)-5-(Azetidin-2-ylmethoxy)-2-methyl-N-(1-(7-(pyrimidin-2-yl)quinolin-5-yl)cyclopropyl)benzamide]	> 7.00
(S)-2-Methyl-N-(1-(2-methyl-7-((2,2,2-trifluoroethyl)amino)quinolin-5-yl)cyclopropyl)-5-((1-methylazetidin-2-yl)methoxy)benzamide [Compound 807]	> 7.00
Cc1ccc(OC[C@@H]2CCN2)cc1C(=O)NC1(c2cc(-c3ccc(C#N)s3)cc3ncccc23)CC1 [Compound 658, (S)-5-(Azetidin-2-ylmethoxy)-N-(1-(7-(5-cyanothiophen-2-yl)quinolin-5-yl)cyclopropyl)-2-methylbenzamide]	> 7.00
Cc1cccc(/C=C/c2cc(C3(NC(=O)c4cc(OC[C@@H]5CCN5C)ccc4C)CC3)c3cccnc3c2)c1 [Compound 690, (S,E)-2-Methyl-5-((1-methylazetidin-2-yl)methoxy)-N-(1-(7-(3-methylstyryl)quinolin-5-yl)cyclopropyl)benzamide]	> 7.00
Cc1ccc(OC[C@@H]2CCN2C)cc1C(=O)NC1(c2cc(C#N)cc3ncccc23)CC1 [Compound 738, (S)-N-(1-(7-cyanoquinolin-5-yl)cyclopropyl)-2-methyl-5-((1-methylazetidin-2-yl)methoxy)benzamide]	> 7.00
Cc1ccc(OC[C@@H]2CCN2C)cc1C(=O)NC1(c2cc(-c3ccc4nccn4c3)cc3ncccc23)CC1 [Compound 702, (S)—N-(1-(7-(Imidazo[1,2-a]pyridin-6-yl)quinolin-5-yl)cyclopropyl)-2-methyl-5-((1-methylazetidin-2-yl)methoxy)benzamide]	> 7.00

Same assay, conditions: SARS-CoV-2 PLpro enzymatic fluorescence assay; read-out: PLpro IC50

Compound	pIC50
Cc1ccc(OCC2CCN2C)cc1C(=O)NC1(c2cccc3cnccc23)CC1 (stereo not drawn) [Compound 402, N-(1-(Isoquinolin-5-yl)cyclopropyl)-2-methyl-5-((1-methylazetidin-2-yl)methoxy)benzamide]	> 7.00
Cc1ccc(CCN)cc1C(=O)NC1(c2cccc3ccccc23)CC1 [Compound 378, 5-(2-Aminoethyl)-2-methyl-N-(1-(naphthalen-1-yl)cyclopropyl)benzamide]	> 7.00
Cc1ccc(OCCN(C)C)cc1C(=O)NC1(c2ccccc2-c2ccccc2)CC1 [Compound 267, N-(1-([1,1′-Biphenyl]-2-yl)cyclopropyl)-5-(2-(dimethylamino)ethoxy)-2-methylbenzamide]	< 5.30
Cc1ccc(OCCN(C)C)cc1C(=O)NC1(c2cncc3ccccc23)CC1 [Compound 409, 5-(2-(Dimethylamino)ethoxy)-N-(1-(isoquinolin-4-yl)cyclopropyl)-2-methylbenzamide]	> 7.00
Cc1cc2nc(CN)[nH]c2cc1C(=O)NC1(c2cccc3ccccc23)CC1 [Compound 280, 2-(Aminomethyl)-5-methyl-N-(1-(naphthalen-1-yl)cyclopropyl)-1H-benzo[d]imidazole-6-carboxamide]	6.00 to 7.00
2-Methyl-N-(1-(naphthalen-1-yl)cyclopropyl)-5-(piperidin-2-ylmethoxy)benzamide [Compound 339]	> 7.00
COc1cc(C2(NC(=O)c3cc(Oc4ccncc4)ccc3C)CC2)c2cccnc2c1 [Compound 584, N-(1-(7-Methoxyquinolin-5-yl)cyclopropyl)-2-methyl-5-(pyridin-4-yloxy)benzamide]	6.00 to 7.00
Cc1ccc(OC[C@@H]2CCN2C)cc1C(=O)NC1(c2cc(-c3cccs3)cc3ncccc23)CC1 [Compound 551, (S)-2-Methyl-5-((1-methylazetidin-2-yl)methoxy)-N-(1-(7-(thiophen-2-yl)quinolin-5-yl)cyclopropyl)benzamide]	> 7.00
Cc1ccc(NC2CNC2)cc1C(=O)NC1(c2cccc3ccccc23)CC1 [Compound 177, 5-(Azetidin-3-ylamino)-2-methyl-N-(1-(naphthalen-1-yl)cyclopropyl)benzamide]	6.00 to 7.00
Cc1cc2c3c([nH]c2cc1C(=O)NC1(c2cccc4ccccc24)CC1)C(=O)CC3 [Compound 334, 7-Methyl-N-(1-(naphthalen-1-yl)cyclopropyl)-3-oxo-1,2,3,4-tetrahydrocyclopenta[b]indole-6-carboxamide]	5.30 to 6.00
Cc1ccc(OC[C@@H]2CCN2C)cc1C(=O)NC1(c2cc(N(C)C)cc3ncccc23)CC1 [Compound 627, (S)-N-(1-(7-(Dimethylamino)quinolin-5-yl)cyclopropyl)-2-methyl-5-((1-methylazetidin-2-yl)methoxy)benzamide]	> 7.00
Cc1cc2cc[nH]c2cc1C(=O)NC1(c2cccc3ccccc23)CC1 [Compound 199, 5-Methyl-N-(1-(naphthalen-1-yl)cyclopropyl)-1H-indole-6-carboxamide]	6.00 to 7.00
Cc1ccc(Nc2cnn(C)c2)cc1C(=O)N[C@H](C)c1cccc(-c2ccc(CN[C@H]3CC[C@@H](O)C3)s2)c1 [Compound 137, N-((R)-1-(3-(5-((((1S,3R)-3-Hydroxycyclopentyl)amino)methyl)thiophen-2-yl)phenyl)ethyl)-2-methyl-5-((1-methyl-1H-pyrazol-4-yl)amino)benzamide]	5.30 to 6.00
Cc1ccc(OC[C@@H]2CCN2C)cc1C(=O)NC1(c2cc(N(C)C)nc3cc(F)ccc23)CC1 [Compound 611, (S)-N-(1-(2-(Dimethylamino)-7-fluoroquinolin-4-yl)cyclopropyl)-2-methyl-5-((1-methylazetidin-2-yl)methoxy)benzamide]	> 7.00
Cc1ccc(OCCN)cc1C(=O)NC1(c2cccc3ccccc23)CC1 [Compound 215, 5-(2-Aminoethoxy)-2-methyl-N-(1-(naphthalen-1-yl)cyclopropyl)benzamide]	> 7.00
Cc1ccc(Nc2ccc[nH]c2=O)cc1C(=O)N[C@H](C)c1cccc2ccccc12 [Compound 119, (R)-2-Methyl-N-(1-(naphthalen-1-yl)ethyl)-5-((2-oxo-1,2-dihydropyridin-3-yl)amino)benzamide]	5.30 to 6.00
Cc1cc2c(cc1C(=O)NC1(c3cccc4ccccc34)CC1)NCC2(C)C [Compound 262, 3,3,5-Trimethyl-N-(1-(naphthalen-1-yl)cyclopropyl)indoline-6-carboxamide]	6.00 to 7.00
Cc1cc2cc(CN)[nH]c2cc1C(=O)NC(C)(C)c1cccc2ccccc12 [Compound 281]	< 5.30
Cc1ccc(OCCN(C)C)cc1C(=O)NC1(c2cccc3cc(F)ccc23)CC1 [Compound 319, 5-(2-(Dimethylamino)ethoxy)-N-(1-(6-fluoronaphthalen-1-yl)cyclopropyl)-2-methylbenzamide]	> 7.00
